Where two headings read alike, the source gives them in different places.
Tests used:
celiac disease symptoms = settings: clinical trials, cited from earlier work
occludin = settings: tissues treated with larazotide
From the text: (§1) Yorkshire-cross pigs 6-8-weeks-of-age were anesthetized, followed by midline laparotomy and creation of a series of 10 cm intestinal loops commencing proximal to the ileum by ligating the intestinal lumen. The local mesenteric vasculature was ligated to select treatment loops for 45-min, whereas other loops were left as non-ischemic controls. Loops were subsequently resected, and the mucosal tissues were stripped in oxygenated (95% O2/5% CO2) Ringers from the muscle layers in preparation for ex vivo incubation in Ussing chambers. Tissues were monitored by measuring transepithelial resistance (TER) for 240-min. At the end of a 240-min recovery period, tissues were taken for histology and immunofluorescence evaluation of tight junction proteins.

claudin 2 = settings: tissues treated with larazotide
From the text: as §1

[1] = tested on: ischemic-injured porcine jejunum; test: Recovery of barrier function (transepithelial resistance, TER) in ischemic-injured porcine jejunum mucosa ex vivo in Ussing chambers; assay type: cell-based, Yorkshire-cross pigs; settings: fragment added together with larazotide
From the text: Intestinal epithelial tight junction integrity is crucial to maintain an intact intestinal barrier against noxious luminal contents. […] Porcine mucosa injured by ischemia/reperfusion injury is abnormally permeable until interepithelial tight junctions have re-assembled.
as §1

tight junction = test: Activity as tight junction regulators (larazotide fragments, alone or mixed with larazotide); settings: for activity as tight junction regulators: fragment alone
From the text: In various embodiments, the methods of the invention comprise treating a subject with larazotide or derivative thereof. Larazotide is a peptide agent that promotes tight junction integrity in the gastrointestinal tract (GI). […] See US 2016/0022760, which is hereby incorporated by reference in its entirety. […] In accordance with this disclosure, it is believed that an aminopeptidase located within the brush borders of the lumen surface may create larazotide-derived fragments, including fragments missing N-terminal glycine residues.

Substance	reducing celiac disease symptoms (celiac disease symptoms; higher doses (e.g., 1 mg and 2 mg doses))	reducing celiac disease symptoms (celiac disease symptoms; lower doses (e.g., 0.5 mg dose))	localization of the tight junction sealing protein occludin (occludin)	pore (leak)-forming tight junction protein claudin 2 (claudin 2)	effect of larazotide in the presence of the fragment [1]	activity as tight junction regulators (tight junction)	activity of full length larazotide when mixed with the two fragments (tight junction)
Gly Gly Val Leu Val Gin Pro Gly [larazotide]	attenuation of activity, or no activity at all	benefit at reducing celiac disease symptoms	increased localization	reductions	–	–	–
GVLVQPG [larazotide-derived fragment missing an N-terminal glycine residue]	–	–	–	–	blocked	inactive	completely abolished
VLVQPG [larazotide-derived fragment missing N-terminal glycine residues]	–	–	–	–	blocked	inactive	completely abolished
